Experimental data from the NIST ThermoML archive (doi:10.1021/je300696c).
Numbers after ± are expanded uncertainties.

Columns and labels:
[1] = Liquid; for mass density: 293.15 K, 101.33 kPa, Vibrating tube method
[2] = refractive index (Na D-line) (dimensionless); details: 293.15 K; 101.33 kPa; Liquid; Standard Abbe refractometry

SMILES	mass density [1]	vapor or sublimation pressure ([1]; 354.3 K, Ebulliometric method (Recirculating still))	refractive index [2]	vapor or sublimation pressure ([1]; 369.09 K, Closed cell (Static) method)	vapor or sublimation pressure ([1]; 350.21 K, Closed cell (Static) method)	vapor or sublimation pressure ([1]; 447.7 K, Ebulliometric method (Recirculating still))	vapor or sublimation pressure ([1]; 447.74 K, Ebulliometric method (Recirculating still))	vapor or sublimation pressure ([1]; 336.48 K, Closed cell (Static) method)
CC(C)(C)O [2-methylpropan-2-ol]	788.5 ± 0.3 kg/m3	96.5 ± 4.8 kPa	1.3878 ± 0.0008					
CCCO [propan-1-ol]	803.4 ± 0.3 kg/m3		1.3851 ± 0.0007	96.5 ± 4.8 kPa				
CCO [ethanol]	788.9 ± 0.3 kg/m3		1.3609 ± 0.0007		96.5 ± 4.8 kPa			
CCCCCCCO [heptan-1-ol]	821.8 ± 0.3 kg/m3		1.4227 ± 0.001			96.5 ± 4.8 kPa	96.5 ± 4.8 kPa	
CO [methanol]	791.2 ± 0.3 kg/m3		1.3285 ± 0.0007					96.5 ± 4.8 kPa
